≈ marks a conversion by molar mass, not a printed value. Where “and” joins values, the source holds several entries; their conditions need not be identical. Equal values may be shown once. Read-outs that look alike come from different tables or passages of the source.
Experiments:
[1] = general statement, not tested in Example 7; cited from earlier work
[2] = Equilibrium oil-water solubility and phase distribution coefficient; type: physicochemical; settings: for Total Solubility: oil plus water phase; for solubility: vegetable oil/water, stirred overnight; for Total solubility (in words): oil and water
Description: The oil and water layers were separated by centrifugation at 10,000 rpm for 30 min. Any undissolved ester was removed by gravity filtration through fluted filter paper. The oil and water layers were assayed for ester using 0.01N I2 solution.

[3] = Dimethylnitrosamine formation in treated and untreated fried bacon, thermal energy analysis (TEA); settings: duplicate
Description: (§1) Several base pickle solutions were prepared in tap water using the following proportions of ingredients: 2.0% sodium tripolyphosphate; 2.5% sucrose, 0%, 0.20% or 0.55% sodium erythorbate; 0.12% or 0.20% sodium nitrite; and 17.0% sodium chloride. Each ingredient was added to the water in the order given and completely dissolved before adding the next ingredient. The desired amount of ascorbyl or erythorbyl laurate was added to selected base solutions as follows. A dispersion or ascorbyl or erythorbyl laurate and Tween 20 was prepared by slurrying 2 parts of Tween 20 and 5 parts of ascorbyl or erythorbyl laurate, hydrating the slurry with a small amount of the base pickle solution and vigorously agitating the hydrated slurry for 10 min to break up the large agglomerates that formed. […] The resultant mixture was homogenized 2 times at 1000 psi in a single-stage homogenizer to give the final pickle solution. The pickle solution was chilled to about 40° F. immediately after preparation and used to prepare the bacon on the day of preparation. Duplicate pork bellies of about 10 lbs weight were stitch-pumped using each of the various concentrations of control or laurate treated cooled, agitated pickle solutions. […] The combined bacon slices from each belly were analyzed for dimethylnitrosamine and nitrosopyrrolidine using standard procedures and a TEA analyzer.

[4] = Nitrosopyrrolidine formation in treated and untreated fried bacon, thermal energy analysis (TEA); settings: for Level of nitrosopyrrolidine (NPy) detected in fried bacon: duplicate; for Reduction of nitrosopyrrolidine relative to untreated fried bacon: treated vs untreated fried bacon; for Level of reduction of nitrosopyrrolidine compared with tocopherol: vs positive control 500 ppm tocopherol
Description: as §1

[5] = Mayonnaise storage test: color, odor and freshness; settings: three months at room temperature; 200 ppm in the vegetable oil
Description: In an electric beater, 20 g of egg yolks, 1.2 g of dry mustard, 3.0 g of salt, and 10 ml of vinegar are combined and well beaten; 144 g of vegetable oil (such as cottonseed, corn, or sesame) which contains 200 ppm (0.02%) of ascorbyl or erythorbyl laurate is then added with constant whipping, and beating is continued until there is complete emulsification and no free oil remains. An additional 10 ml of vinegar is added and the beating is continued for a few minutes longer until the emulsion is smooth and of a semi-solid consistency. The resultant mayonnaise is packed in jars and capped.
After three months of storage at room temperature, the color, odor and freshness of the treated mayonnaise are evaluated against similarly stored, untreated mayonnaise and against freshly prepared mayonnaise.

[6] = Bologna storage test: panel comparison of color, odor and flavor; settings: stored at 36°-40° F. for 1 month
Description: (§2) In a large mixer there are combined 60 lb of whole carcass beef which has been ground through a 1/4" plate, 40 lb of regular pork trimmings which has been ground through a 3/8" plate, 2 lb 12 oz of salt, 8 oz of sugar, 4 oz of ground white pepper, 1 oz of coriander, 1 oz of mace, 0.85 oz of sodium erythorbate, 0.25 oz of sodium nitrite, and 1.00 oz of erythorbyl laurate. 25 lb of chopped ice is added and the mixture is cycled through a mechanical emulsifier until the desired texture is attained. The finished emulsion is transferred to a casing stuffer and stuffed into a No. 8 by 36 in. fibrous casing. The resultant product is ready for smoking, which will require approximately 8 hrs. The product is placed in a smokehouse at 130° F. with the damper open and cooked for 30 min. The damper is then closed and the temperature is raised 10° F./hr to 170° F. The heating is continued at 170° F. until an internal temperature of 156° F. is reached. The resultant bologna is cold showered with tap water for 35 to 40 min, held at room temperature for 30 min, and placed in a cooler at 36°-40° F. This procedure will produce bolognas of approximately 18 lb with a 15 in. circumference.
The treated bologna is sliced, wrapped and stored at 36°-40° F. for 1 month and its color, odor and flavor are compared to a similarly prepared and stored, untreated bologna.

[7] = Corn flakes storage test: rancid and painty taste; settings: six months at room temperature; 0.005% by weight, aqueous spray
Description: In a cylindrical pressure cooker are placed about 1700 pounds of degermed and debranned, No. 4-5 milled, hybrid yellow corn and 36 gallons of flavoring syrup composed of sugar, malt, salt and water. The mixture is cooked at 18 psi steam pressure for about 11/2 hours to produce a moisture content of about 33%. Uniform translucency of the kernels will indicate an adequate cook. The kernels are crushed and dried to about 21% moisture. The dried, crushed grits are then heat tempered at 180° F. for 16 hours in order to evenly distribute the water content. The cooked, dried grits are flaked using a conventional flake roller and are passed directly to the toasting oven where they are heated at 575° F. for 50 seconds to produce the finished flakes of less than 3% moisture content. As they cool, they are treated with an aqueous spray of B-complex vitamins and 0.005% by weight erythorbyl laurate relative to the final corn flakes weight. The treated, finished flakes are placed in paper boxes with waxed paper liners.
Treated and untreated flakes are stored six months at room temperature and then compared.

[8] = Hand creme N-nitrosamine analysis by TEA
Description: (§3) A hand creme is prepared by mixing a water phase at 70° C. with an oil phase at 75° C. The oil phase consists of 2.0 g of isopropyl myristate, 2.0 g of cetyl alcohol, 15.0 g of stearic acid, 2.0 g of lanolin, and 20.0 mg of erythorbyl laurate. The water phase consists of 71.6 ml of deionized water, 3.0 g of glycerol, 3.0 g of 70% sorbitol, and 1.4 g of triethanolamine. After thoroughly mixing the oil and water phases, the emulsion is cooled to 45° C. at which time the appropriate perfumes are added and mixed thoroughly into the emulsion. After cooling the emulsion to room temperature, the resultant hand creme is placed in an opaque glass jar and sealed.
Portions of the hand cremes described above may be analyzed for N-nitrosamines using a Thermal Energy Analyzer (TEA) and standard procedures.

[9] = Hand creme accelerated stability test at 63° C., color, appearance and odor by test panel; settings: one month at 63° C.
Description: as §3
(§4) Using an accelerated stability test at 63° C. this hand creme is compared to a similarly prepared hand creme containing no erythorbyl laurate. After one month of storage at 63° C., the color, appearance and odor of both hand cremes are evaluated against freshly prepared control hand creme.

[10] = Bologna N-nitrosamine analysis by TEA
Description: as §2
The two bolognas may be analyzed for N-nitrosamines using standard procedures and a TEA analyzer.

[11] = Emollient lotion accelerated stability test; settings: accelerated stability tests of Example 3
Description: as §4
An oil phase consisting of 70 g of mineral oil, 30 g of lanolin, and 30 g of glycerol monostearate and heated to 75° C. is added to a water phase consisting of 15 g triethanolamine, 200 mg of erythorbyl caprate, and 849 ml of water, also at 75° C. After thoroughly mixing the oil and water phases at 75° C., the emulsion is cooled to 45° C. and perfumed. After cooling to room temperature the emulsion is homogenized to give the emollient lotion.
Using the accelerated stability tests of Example 3 the treated emollient lotion is compared to a similarly prepared, untreated emollient lotion.

[12] = organic solvent or mixture, read-out: Oil Phase Solubility
[13] = read-out: Water Phase Solubility
[14] = 120 ppm NaNO2, 550 ppm NaEr + 500 ppm AL, listed as AL
[15] = 120 ppm NaNO2, 200 ppm NaEr only (null control)
[16] = 200 ppm NaNO2, 200 ppm NaEr only
[17] = 120 ppm NaNO2, 550 ppm NaEr + 500 ppm EL

COc1ccc(O)c(C(C)(C)C)c1 [BHA]
Distribution coefficient (oil/water) (in words) [1]: essentially infinity
Water solubility (in words) [1]: water-insoluble

CCCCCCCCCCCC(=O)OC[C@H](O)[C@H]1OC(=O)C(O)=C1O [ascorbyl laurate]
Total Solubility [2]: 390 ppm
solubility [2, 12]: 250 µg/mL (≈ 697 µM)
solubility [2, 13]: 140 µg/mL (≈ 391 µM)
Level of dimethylnitrosamine (DMNA) detected in fried bacon [3, 14]: 2.7 ppb and 1.7 ppb
Level of dimethylnitrosamine (DMNA) detected in fried bacon ([3]; 200 ppm NaNO2, 550 ppm NaEr + 500 ppm AL, listed as AL): 1.6 ppb and 2.6 ppb
Level of nitrosopyrrolidine (NPy) detected in fried bacon [4, 14]: 1.4 ppb and 2.4 ppb
Reduction of nitrosopyrrolidine relative to untreated fried bacon [4]: approximately four
Level of reduction of nitrosopyrrolidine compared with tocopherol [4]: about the same
Objectionable change in color, odor and freshness of mayonnaise [5]: substantially less objectionable change

Cc1cc(C(C)(C)C)c(O)c(C(C)(C)C)c1 [BHT]
Distribution coefficient (oil/water) (in words) [1]: essentially infinity
Water solubility (in words) [1]: water-insoluble

O=C1O[C@H]([C@H](O)CO)C(O)=C1O [NaEr, sodium erythorbate, reference compound]
Level of dimethylnitrosamine (DMNA) detected in fried bacon [3, 15]: 1.0 ppb and 1.2 ppb
Level of dimethylnitrosamine (DMNA) detected in fried bacon ([3]; 120 ppm NaNO2, 550 ppm NaEr only (null control)): trace (Trace means less than 1 ppb)
Level of dimethylnitrosamine (DMNA) detected in fried bacon [3, 16]: 2.1 ppb and 1.6 ppb
Level of nitrosopyrrolidine (NPy) detected in fried bacon [4, 15]: 4.2 ppb and 3.3 ppb
Level of nitrosopyrrolidine (NPy) detected in fried bacon [4, 16]: 3.6 ppb and 3.9 ppb

CCCCCCCCCC(=O)OC[C@H](O)[C@H]1OC(=O)C(O)=C1O [ascorbyl caprate, reference compound]
Total solubility (in words) ([2]; Example 7): high total solubility
Total Solubility [2]: 5400 ppm
Distribution coefficient (in words) ([2]; oil/water, Example 7): very low distribution coefficient
solubility [2, 12]: 100 µg/mL (≈ 303 µM)
solubility [2, 13]: 5300 µg/mL (≈ 16000 µM)

tocopherol [reference compound]
Distribution coefficient (oil/water) (in words) [1]: essentially infinity
Level of nitrosopyrrolidine (NPy) detected in fried bacon ([4]; 120 ppm NaNO2, 550 ppm NaEr + 500 ppm TOC (positive control)): none detected (Limit of detection is 0.2 ppb)

CCCCCCCCCCCCCCCC(=O)OC[C@H](O)[C@H]1OC(=O)C(O)=C1O [ascorbyl palmitate, reference compound]
Total solubility (in words) ([2]; Example 7): low total solubility
Total Solubility [2]: 175 ppm
solubility [2, 12]: 110 µg/mL (≈ 265 µM)
solubility [2, 13]: 65 µg/mL (≈ 157 µM)

CCCCCCCCCCCC(=O)OC[C@@H](O)[C@H]1OC(=O)C(O)=C1O [erythorbyl laurate]
Total Solubility [2]: 700 ppm
solubility [2, 12]: 450 µg/mL (≈ 1260 µM)
solubility [2, 13]: 350 µg/mL (≈ 976 µM)
Objectionable change in color, odor and flavor relative to untreated bologna [6]: substantially less objectionable change
Level of dimethylnitrosamine (DMNA) detected in fried bacon ([3]; 120 ppm NaNO2, 550 ppm NaEr + 250 ppm EL, listed as EL): 1.2 ppb and 1.7 ppb
Level of dimethylnitrosamine (DMNA) detected in fried bacon [3, 17]: trace (Trace means less than 1 ppb)
Level of dimethylnitrosamine (DMNA) detected in fried bacon ([3]; 120 ppm NaNO2, 995 ppm EL, no NaEr, listed as EL): 1.2 ppb and 1.0 ppb
Level of dimethylnitrosamine (DMNA) detected in fried bacon ([3]; 200 ppm NaNO2, 550 ppm NaEr + 250 ppm EL): 2.0 ppb
Level of dimethylnitrosamine (DMNA) detected in fried bacon ([3]; 200 ppm NaNO2, 550 ppm NaEr + 500 ppm EL, listed as EL): 1.3 ppb and 1.9 ppb
Level of dimethylnitrosamine (DMNA) detected in fried bacon ([3]; 200 ppm NaNO2, 995 ppm EL, no NaEr, listed as EL): 2.2 ppb and 1.7 ppb
Rancid and painty taste relative to untreated flakes [7]: insignificant rancid and painty taste
Level of nitrosopyrrolidine (NPy) detected in fried bacon [4, 17]: trace (Trace means less than 1 ppb)
Level of nitrosopyrrolidine (NPy) detected in fried bacon ([4]; 200 ppm NaNO2, 550 ppm NaEr + 500 ppm EL): trace (Trace means less than 1 ppb)
Reduction of nitrosopyrrolidine relative to untreated fried bacon [4]: approximately four
Level of reduction of nitrosopyrrolidine compared with tocopherol [4]: about the same
Levels of N-nitrosamines relative to untreated hand creme [8]: substantially reduced levels of N-nitrosamines
Objectionable change in color, appearance and odor relative to untreated hand creme [9]: substantially less objectionable change
Objectionable change in color, odor and freshness of mayonnaise [5]: substantially less objectionable change
Levels of N-nitrosamines relative to untreated bologna [10]: substantially reduced levels of N-nitrosamines

CC(C)(C)c1cc(O)ccc1O [TBHQ]
Distribution coefficient (oil/water) (in words) [1]: essentially infinity
Water solubility (in words) [1]: water-insoluble

CCCCCCCCCC(=O)OC[C@@H](O)[C@H]1OC(=O)C(O)=C1O [erythorbyl caprate]
Total Solubility [2]: 4000 ppm
solubility [2, 12]: 1500 µg/mL (≈ 4540 µM)
solubility [2, 13]: 2500 µg/mL (≈ 7570 µM)
Degradation relative to untreated emollient lotion [11]: substantially less degradation

Source: patent US4251563A, “Compositions containing N-nitrosamine formation or oxidation inhibitors and the use thereof” (Pfizer Inc., priority 1979, dated 1981)
